Data on 9 compounds can be found in PubChem BioAssay (NCI).

Assay in all cases: NCI tumour cell line growth inhibition, 48 h
The subject of experiment [1] is SR leukemia.
The test system of experiment [2] is IGROV1 ovarian.
Experiment [3] has as its system SNB-19 CNS.
Experiment [4] concerns UACC-257 melanoma.
For experiment [5], the system named is 786-0 renal.
For experiment [6], the system named is MDA-MB-231 breast.
In experiment [7] the test system is OVCAR-8 ovarian.
In experiment [8] the test system is HL-60(TB) leukemia.
Experiment [9] deals with NCI/ADR-RES ovarian.
In experiment [10] the test system is HCC-2998 colon.
Experiment [11] relates to SNB-75 CNS.

Each structure is given as a SMILES string.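 Five compound concentrations were applied to cells in 96-well plates for 48 hours; endpoints were derived by simple linear interpolation of the resulting dose-response curve. TGI: total growth inhibition.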 Where a SMILES comes first, the peptide text is derived from it. [ ]: non-standard residue; d: D form. The star is where a group is joined. NMeAc5c = CNC1(C(=O)O)CCCC1; Boc = CC(C)(C)OC(=O)*; OBn = c1ccc(CO*)cc1

With `O=c1[nH]c(Nc2cccc(CC(F)(F)F)c2)nc2nc[nH]c12`, the TGI in experiment [1], in experiment [2], in experiment [3], in experiment [4], in experiment [5] and in [6] was more than 100 µM each time. The TGI in [7], in experiment [8], in experiment [9], in experiment [10] and in experiment [11] was more than 100 µM in each case.
In the case of `CN(C(=O)C(Cc1ccccc1)NC(=O)OC(C)(C)C)C1(C(=O)NC(Cc2ccccc2)C(=O)OCc2ccccc2)CCCC1` (stereo not drawn) (Boc-Phe-[NMeAc5c]-Phe-OBn; configuration not given here), the TGI in experiment [1] was 69.1 µM; in [2] it was more than 100 µM; in [3], more than 100 µM; in [4], more than 100 µM; in experiment [5], more than 100 µM; in experiment [6], 87 µM. Besides, the TGI in [7] was more than 100 µM; in experiment [8] it was 47.5 µM; in experiment [9], more than 100 µM; in experiment [10] it was more than 100 µM; in experiment [11], more than 100 µM.
As to `C=CCN1C[C@H](C)N([C@H](c2ccc(C(=O)NC(CC)CC)cc2)c2cccc(OC)c2)C[C@H]1C`, the TGI was 44.4 µM in experiment [1]; more than 100 µM in [2]; more than 100 µM in experiment [3]; 70.7 µM in [4]; more than 100 µM in [5]; 75.6 µM in experiment [6]. The TGI in [7] is more than 100 µM; in experiment [8], 32.4 µM; in experiment [9], more than 100 µM; in experiment [10], more than 100 µM; in experiment [11], more than 100 µM.
With `CN1CCc2cc(N)cc3c2C1Cc1ccc(O)c(O)c1-3` (centres undefined), the TGI in experiment [1] is more than 100 µM; in experiment [2], more than 100 µM; in experiment [3] it was more than 100 µM; in [4], 52.9 µM; in experiment [5] it was more than 100 µM; in [6], more than 100 µM. Moreover, the TGI in [7] was more than 100 µM; in experiment [8], 98.7 µM; in experiment [9], more than 100 µM; in experiment [10], 33.1 µM; in [11] it was more than 100 µM.
In the case of `O=C1CCCSC(=O)N1Cc1ccccc1`, the TGI in experiment [1], in [2], in experiment [3], in [4], in experiment [5] and in [6] was more than 100 µM in each case. The TGI in experiment [7], in experiment [8], in experiment [9], in [10] and in experiment [11] was more than 100 µM throughout.
On to `COc1cc2c(c(OC)c1OC)C(=O)[C@@H]1[C@H]2N1C(N)=O`, for which the TGI in [1], in experiment [2], in experiment [3], in experiment [4], in [5] and in [6] was more than 100 µM throughout. Further, the TGI in experiment [7], in [8], in [9], in experiment [10] and in experiment [11] was more than 100 µM in each case.
For `COc1ccc2cc(NC(=O)N/N=C\c3ccc([N+](=O)[O-])cc3)ccc2c1`, the TGI is more than 100 µM in experiment [1]; more than 100 µM in [2]; 47.9 µM in [3]; more than 100 µM in experiment [4]; more than 100 µM in [5]; more than 100 µM in [6]. Besides, the TGI in [7] is 87.3 µM; in [8] it was more than 100 µM; in experiment [9] it was 97.2 µM; in [10], more than 100 µM; in [11], 65.4 µM.
Take `O=C1C=CC(=O)c2c1ccc1c3ccccc3n(CCCCCCCCCCCCn3c4ccccc4c4ccc5c(c43)C(=O)C=CC5=O)c21`: the TGI in [1], in experiment [2], in experiment [3], in experiment [4], in [5] and in experiment [6] was more than 100 µM in each case. In addition, the TGI was more than 100 µM in experiment [7]; more than 91.3 µM in experiment [8]; more than 100 µM in experiment [9]; more than 46.4 µM in [10]; more than 100 µM in experiment [11].
Turning to `CCCCCCCCCCCCCCNC(=O)CCC(NC(=O)c1ccc(N(C)Cc2cnc3nc(N)nc(N)c3n2)cc1)C(=O)NCCCCCCCCCCCCCC` (centres undefined), the TGI is 21.8 µM in experiment [1]; 27.3 µM in [2]; more than 61.4 µM in experiment [3]; 35.4 µM in [4]; 52.1 µM in experiment [5]; more than 44.8 µM in experiment [6]. Besides, the TGI in experiment [7] was 39.8 µM; in [8] it was 0.758 µM; in experiment [9], more than 100 µM; in experiment [10] it was 19.8 µM; in [11], 34.8 µM.
